From patent US10844032B2, “Substituted benzofuran, benzothiophene and indole Mcl-1 inhibitors” (Vanderbilt University, priority 2012, dated 2020)

biological target: recombinant Mcl-1 (residues 172-327) (Homo sapiens (Human), UniProt Q07820); test: Bak peptide fluorescence polarization anisotropy competition assay, Mcl-1; format: binding; conditions: Table 2, Ki range; FITC-Bak peptide 10 nM, Mcl-1 14 nM; read-out: Ki for inhibition of Mcl-1
Sequence (Q07820 172-327): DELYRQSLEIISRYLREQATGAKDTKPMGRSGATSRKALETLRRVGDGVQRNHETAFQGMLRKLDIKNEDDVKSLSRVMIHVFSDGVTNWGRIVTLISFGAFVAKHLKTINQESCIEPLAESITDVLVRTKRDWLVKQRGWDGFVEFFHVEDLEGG

Row | SMILES | Ki
1 | Cc1cc(OCCCc2c(C(=O)NS(=O)(=O)c3ccccc3)[nH]c3c(-c4ccsc4C)cccc23)cc(C)c1Cl [Example 98, 3-(3-(4-chloro-3,5-dimethylphenoxy)propyl)-7-(2-methylthiophen-3-yl)-N-(phenylsulfonyl)-1H-indole-2-carboxamide] | ≤ 100 nM
2 | Cc1ccsc1-c1cccc2c(CCCOc3cc(C)c(Cl)c(C)c3)c(C(=O)NS(=O)(=O)c3ccccc3)[nH]c12 [Example 99, 3-(3-(4-chloro-3,5-dimethylphenoxy)propyl)-7-(3-methylthiophen-2-yl)-N-(phenylsulfonyl)-1H-indole-2-carboxamide] | ≤ 100 nM
3 | Cc1cc(OCCCc2c(C(=O)NS(=O)(=O)c3ccccc3)[nH]c3c(-c4ccnn4C)cccc23)cc(C)c1Cl [Example 100, 3-(3-(4-chloro-3,5-dimethylphenoxy)propyl)-7-(1-methyl-1H-pyrazol-5-yl)-N-(phenylsulfonyl)-1H-indole-2-carboxamide] | ≤ 100 nM
4 | Cc1cc(OCCCc2c(C(=O)NS(=O)(=O)c3ccccc3)[nH]c3c(-c4cccn4C)cccc23)cc(C)c1Cl [Example 101, 3-(3-(4-chloro-3,5-dimethylphenoxy)propyl)-7-(1-methyl-1H-pyrrol-2-yl)-N-(phenylsulfonyl)-1H-indole-2-carboxamide] | ≤ 100 nM
5 | Cc1cc(OCCCc2c(C(=O)NS(=O)(=O)c3ccccc3)[nH]c3c(-c4ncccc4C(F)(F)F)cccc23)cc(C)c1Cl [Example 102, 3-(3-(4-chloro-3,5-dimethylphenoxy)propyl)-N-(phenylsulfonyl)-7-(3-(trifluoromethyl)pyridin-2-yl)-1H-indole-2-carboxamide] | ≤ 100 nM
6 | Cc1cc(OCCCc2c(C(=O)NS(=O)(=O)c3ccccc3)[nH]c3c(-c4cnccc4C(F)(F)F)cccc23)cc(C)c1Cl [Example 103, 3-(3-(4-chloro-3,5-dimethylphenoxy)propyl)-N-(phenylsulfonyl)-7-(4-(trifluoromethyl)pyridin-3-yl)-1H-indole-2-carboxamide] | ≤ 100 nM
7 | Cc1cc(OCCCc2c(C(=O)NS(=O)(=O)c3ccccc3)[nH]c3c(-c4ccncc4C(F)(F)F)cccc23)cc(C)c1Cl [Example 104, 3-(3-(4-chloro-3,5-dimethylphenoxy)propyl)-N-(phenylsulfonyl)-7-(3-(trifluoromethyl)pyridin-4-yl)-1H-indole-2-carboxamide] | ≤ 100 nM

Other lines, results leading:

Row | Ki | SMILES
8 | ≤ 100 nM | Cc1cc(OCCCc2c(C(=O)NS(C)(=O)=O)[nH]c3cccc(Br)c23)cc(C)c1Cl [Example 113, 4-bromo-3-(3-(4-chloro-3,5-dimethylphenoxy)propyl)-N-(methylsulfonyl)-1H-indole-2-carboxamide]
9 | ≤ 100 nM | Cc1cc(OCCCc2c(C(=O)NS(C)(=O)=O)[nH]c3cccc(C)c23)cc(C)c1Cl [Example 116, 3-(3-(4-chloro-3,5-dimethylphenoxy)propyl)-4-methyl-N-(methylsulfonyl)-1H-indole-2-carboxamide]
10 | ≤ 100 nM | Cc1cc(OCCCc2c(C(=O)NS(=O)(=O)c3ccccc3)[nH]c3c(-c4cnn(C)c4)c(Cl)ccc23)cc(C)c1Cl [Example 121, 6-chloro-3-(3-(4-chloro-3,5-dimethylphenoxy)propyl)-7-(1-methyl-1H-pyrazol-4-yl)-N-(phenylsulfonyl)-1H-indole-2-carboxamide]
11 | ≤ 100 nM | Cc1cc(OCCCc2c(C(=O)NS(=O)(=O)c3ccccc3)[nH]c3c(-c4cnn(C)c4)cccc23)cc(C)c1Cl [Example 123, 3-(3-(4-chloro-3,5-dimethylphenoxy)propyl)-7-(1-methyl-1H-pyrazol-4-yl)-N-(phenylsulfonyl)-1H-indole-2-carboxamide]
12 | ≤ 100 nM | CC(=O)N1CCN(c2ccc(OCc3nn(C)c(C)c3-c3cccc4c(CCCOc5cc(C)c(Cl)c(C)c5)c(C(=O)NS(=O)(=O)c5ccccc5)n(Cc5cccnc5)c34)cc2)CC1 [Example 124, 7-(3-((4-(4-acetylpiperazin-1-yl)phenoxy)methyl)-1,5-dimethyl-1H-pyrazol-4-yl)-3-(3-(4-chloro-3,5-dimethylphenoxy)propyl)-N-(phenylsulfonyl)-1-(pyridin-3-ylmethyl)-1H-indole-2-carboxamide]
13 | ≤ 100 nM | Cc1cc(OCCCc2c(C(=O)NS(=O)(=O)c3ccccc3)[nH]c3c(-c4c(CO)nn(C)c4C)cccc23)cc(C)c1Cl [Example 127, 3-(3-(4-chloro-3,5-dimethylphenoxy)propyl)-7-(3-(hydroxymethyl)-1,5-dimethyl-1H-pyrazol-4-yl)-N-(phenylsulfonyl)-1H-indole-2-carboxamide]

same assay, conditions: read-out: Ki for inhibition of Mcl-1

Row | SMILES | Ki
14 | Cc1cc(OCCCc2c(C(=O)NS(=O)(=O)c3ccccc3)[nH]c3c(-c4cccs4)cccc23)cc(C)c1Cl [Example 95, 3-(3-(4-chloro-3,5-dimethylphenoxy)propyl)-N-(phenylsulfonyl)-7-(thiophen-2-yl)-1H-indole-2-carboxamide] | 101 to 299 nM
15 | Cc1cc(OCCCc2c(C(=O)NS(=O)(=O)c3ccccc3)[nH]c3c(-c4ccsc4)cccc23)cc(C)c1Cl [Example 96, 3-(3-(4-chloro-3,5-dimethylphenoxy)propyl)-N-(phenylsulfonyl)-7-(thiophen-3-yl)-1H-indole-2-carboxamide] | 101 to 299 nM
16 | CS(=O)(=O)NC(=O)c1[nH]c2cc(Cl)ccc2c1CCCOc1ccc(Cl)c(Cl)c1 [Example 105, 6-chloro-3-(3-(3,4-dichlorophenoxy)propyl)-N-(methylsulfonyl)-1H-indole-2-carboxamide] | 1000 to 9990 nM
17 | CS(=O)(=O)NC(=O)c1[nH]c2cc(Cl)ccc2c1CCCOc1cccc2c1CCC2 [Example 106, 6-chloro-3-(3-((2,3-dihydro-1H-inden-4-yl)oxy)propyl)-N-(methylsulfonyl)-1H-indole-2-carboxamide] | 1000 to 9990 nM
18 | CS(=O)(=O)NC(=O)c1[nH]c2cc(Cl)ccc2c1CCCOc1ccccc1Br [Example 107, 3-(3-(2-bromophenoxy)propyl)-6-chloro-N-(methylsulfonyl)-1H-indole-2-carboxamide] | 1000 to 9990 nM
19 | COc1cccc(OCCCc2c(C(=O)NS(C)(=O)=O)[nH]c3cc(Cl)ccc23)c1 [Example 108, 6-chloro-3-(3-(3-methoxyphenoxy)propyl)-N-(methylsulfonyl)-1H-indole-2-carboxamide] | 1000 to 9990 nM
20 | COc1ccc(OCCCc2c(C(=O)NS(C)(=O)=O)[nH]c3cc(Cl)ccc23)cc1 [Example 109, 6-chloro-3-(3-(4-methoxyphenoxy)propyl)-N-(methylsulfonyl)-1H-indole-2-carboxamide] | 10000 to 50000 nM

Results, then the compound that gave them:

Row | Ki | SMILES
21 | 501 to 999 nM | Cc1cc(OCCCc2c(C(=O)NS(C)(=O)=O)[nH]c3ccc(Cl)cc23)cc(C)c1Cl [Example 110, 5-chloro-3-(3-(4-chloro-3,5-dimethylphenoxy)propyl)-N-(methylsulfonyl)-1H-indole-2-carboxamide]
22 | 1000 to 9990 nM | CS(=O)(=O)NC(=O)c1[nH]c2ccc(Cl)cc2c1CCCOc1cccc2ccccc12 [Example 111, 5-chloro-N-(methylsulfonyl)-3-(3-(naphthalen-1-yloxy)propyl)-1H-indole-2-carboxamide]
23 | 301 to 500 nM | Cc1cc(OCCCc2c(C(=O)NS(C)(=O)=O)[nH]c3cc(Br)ccc23)cc(C)c1Cl [Example 112, 6-bromo-3-(3-(4-chloro-3,5-dimethylphenoxy)propyl)-N-(methylsulfonyl)-1H-indole-2-carboxamide]
24 | 301 to 500 nM | CS(=O)(=O)NC(=O)c1[nH]c2cc(Br)ccc2c1CCCOc1cccc2ccccc12 [Example 114, 6-bromo-N-(methylsulfonyl)-3-(3-(naphthalen-1-yloxy)propyl)-1H-indole-2-carboxamide]
25 | 501 to 999 nM | CS(=O)(=O)NC(=O)c1[nH]c2cccc(Br)c2c1CCCOc1cccc2ccccc12 [Example 115, 4-bromo-N-(methylsulfonyl)-3-(3-(naphthalen-1-yloxy)propyl)-1H-indole-2-carboxamide]
26 | 301 to 500 nM | Cc1ccc2c(CCCOc3cc(C)c(Cl)c(C)c3)c(C(=O)NS(C)(=O)=O)[nH]c2c1 [Example 117, 3-(3-(4-chloro-3,5-dimethylphenoxy)propyl)-6-methyl-N-(methylsulfonyl)-1H-indole-2-carboxamide]
27 | 1000 to 9990 nM | Cc1ccc2c(CCCOc3cccc4ccccc34)c(C(=O)NS(C)(=O)=O)[nH]c2c1 [Example 118, 6-Methyl-N-(methylsulfonyl)-3-(3-(naphthalen-1-yloxy)propyl)-1H-indole-2-carboxamide]
28 | 101 to 299 nM | Cc1cc(OCCCc2c(C(=O)NS(C)(=O)=O)[nH]c3c(C)c(Cl)ccc23)cc(C)c1Cl [Example 119, 6-chloro-3-(3-(4-chloro-3,5-dimethylphenoxy)propyl)-7-methyl-N-(methylsulfonyl)-1H-indole-2-carboxamide]
29 | 1000 to 9990 nM | Cc1cc(OCCCc2c(C(=O)NS(C)(=O)=O)[nH]c3c(C)c(Br)ccc23)cc(C)c1Cl [Example 120, 6-bromo-3-(3-(4-chloro-3,5-dimethylphenoxy)propyl)-7-methyl-N-(methylsulfonyl)-1H-indole-2-carboxamide]
30 | 301 to 500 nM | Cc1cc(OCCCc2c(C(=O)NS(=O)(=O)c3ccccc3)[nH]c3c(-c4cnn(C)c4)ccc(Cl)c23)cc(C)c1Cl [Example 122, 4-chloro-3-(3-(4-chloro-3,5-dimethylphenoxy)propyl)-7-(1-methyl-1H-pyrazol-4-yl)-N-(phenylsulfonyl)-1H-indole-2-carboxamide]
31 | 101 to 299 nM | CC(=O)N1CCN(c2ccc(OCc3nn(C)c(C)c3-c3cccc4c(CCCOc5cc(C)c(Cl)c(C)c5)c(C(=O)NS(C)(=O)=O)n(Cc5cccnc5)c34)cc2)CC1 [Example 125, 7-(3-((4-(4-acetylpiperazin-1-yl)phenoxy)methyl)-1,5-dimethyl-1H-pyrazol-4-yl)-3-(3-(4-chloro-3,5-dimethylphenoxy)propyl)-N-(methylsulfonyl)-1-(pyridin-3-ylmethyl)-1H-indole-2-carboxamide]
32 | 101 to 299 nM | Cc1cc(OCCCc2c(C(=O)NS(C)(=O)=O)[nH]c3c(-c4c(CO)nn(C)c4C)cccc23)cc(C)c1Cl [Example 126, 3-(3-(4-chloro-3,5-dimethylphenoxy)propyl)-7-(3-(hydroxymethyl)-1,5-dimethyl-1H-pyrazol-4-yl)-N-(methylsulfonyl)-1H-indole-2-carboxamide]
